pEC50: −log10 of the molar value. Read-outs that look alike come from different tables or passages of the source.
Assays:
HBV = HBV inhibitory activity: HBV DNA in the culture medium of HepG2.2.15 cells by q-PCR; type: cell-based; conditions: HepG2.2.15 cells, 6 days of compound treatment, HBV DNA in culture medium by q-PCR, highest concentration 10 μM, read-out: EC50
Summary of the method: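 Supernatant HBV DNA quantified by q-PCR after a 6-day compound exposure, with one mid-course medium change, of HepG2.2.15 cells (stably integrated HBV; 40,000 per well, 2% FBS). Eight-point 3-fold series topped at 10 μM for antiviral EC50; separate plates of 5,000 cells per well with 100 μM top give CC50.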

[1] = Cytotoxicity determination in HepG2.2.15 cells (CCK-8); type: cell-based; conditions: human, 6 days of compound treatment, CCK-8, highest concentration 100 μM
Summary of the method: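 CC50 is from CCK-8 absorbance (450 nm, 630 nm reference) after 2.5 h with reagent. Before that, compounds were applied for six days, top concentration 100 μM, eight threefold dilutions, one mid-course medium change, to stably HBV-integrated HepG2.2.15 cells plated at 5,000/well in 2% FBS.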

[2] = Hepatitis B virus, HepG2.2.15, 144 h

Compound	pEC50 (HBV; [2])	CC50 at 6 days [1] [nM]	pEC50 (HBV)
COC(=O)C1=C(C2CCN(S(=O)(=O)CCO)CC2)NC(c2nccs2)=NC1c1ccc(F)cc1Cl (single isomer, unassigned) [Compound 185B, Methyl 4-(2-chloro-4-fluorophenyl)-6-(1-((2-hydroxyethyl)sulfonyl)piperidin-4-yl)-2-(thiazol-2-yl)-1,4-dihydropyrimidine-5-carboxylate]	7.74	26200	
COCCNS(=O)(=O)[C@H]1CC[C@@H](C2=C(C(=O)OC)C(c3ccc(F)c(F)c3Cl)N=C(c3nccs3)N2)CC1 (single isomer, unassigned) [Compound 359B, (cis)-Methyl 4-(2-chloro-3,4-difluorophenyl)-6-(4-(N-(2-methoxyethyl)sulfamoyl)cyclohexyl)-2-(thiazol-2-yl)-1,4-dihydropyrimidine-5-carboxylate]	7.26	10500	
CCOC(=O)C1=C([C@H]2CC[C@H](C(=O)OC)CC2)NC(c2nccs2)=NC1c1cccc(F)c1Cl (relative stereo) [Compound 22Y, Ethyl 4-(2-chloro-3-fluorophenyl)-6-(trans-4-(methoxycarbonyl)-cyclohexyl)-2-(thiazol-2-yl)-1,4-dihydropyrimidine-5-carboxylate]	6.65	75900	
COC(=O)C1=C(C23CC(NS(C)(=O)=O)(C2)C3)NC(c2nccs2)=NC1c1ccc(F)c(F)c1Cl (stereo not drawn) [Compound 204A, Methyl 4-(2-chloro-3,4-difluorophenyl)-6-(3-(methyl-sulfonamido)bicyclo[0.1.1.1]pentan-1-yl)-2-(thiazol-2-yl)-1,4-dihydropyrimidine-5-carboxylate]	8.15	23800	
CCOC(=O)C1=C([C@H]2CC[C@H](C(=O)O)CO2)NC(c2nccs2)=NC1c1ccc(F)cc1Cl (single isomer, unassigned) [Compound 363E, (trans)-6-(−6-(2-Chloro-4-fluorophenyl)-5-(ethoxycarbonyl)-2-(thiazol-2-yl)-3,6-dihydropyrimidin-4-yl)tetrahydro-2H-pyran-3-carboxylic Acid]		> 100000	6.53
COCCS(=O)(=O)N1CCC(C2=C(C(=O)OC)C(c3ccc(F)cc3Cl)N=C(c3nccs3)N2)CC1 (stereo not drawn) [Compound 215, Methyl 4-(2-chloro-4-fluorophenyl)-6-(1-((2-methoxyethyl)sulfonyl)piperidin-4-yl)-2-(thiazol-2-yl)-1,4-dihydropyrimidine-5-carboxylate]	7.29	52700	
COC(=O)C1=C([C@H]2CC[C@H](N(CCO)C(C)=O)CC2)NC(c2nccs2)=NC1c1ccc(F)c(F)c1Cl (single isomer, unassigned) [Compound 433B, (trans)-Methyl 4-(2-chloro-3,4-difluorophenyl)-6-(4-(N-(2-hydroxyethyl)acetamido)cyclohexyl)-2-(thiazol-2-yl)-1,4-dihydropyrimidine-5-carboxylate]	7.23	17400	
COC(=O)C1=C([C@H]2CC[C@H](C(=O)O)CC2)NC(c2nccs2)=NC1c1ccc(F)c(F)c1C (stereo partly drawn) [Compound 227A, (trans)-4-(−6-(3,4-Difluoro-2-methylphenyl)-5-(methoxycarbonyl)-2-(thiazol-2-yl)-3,6-dihydropyrimidin-4-yl)cyclohexanecarboxylic Acid]	7.02	37600	
COC(=O)C1=C(C2C3CCC2CN(S(C)(=O)=O)C3)NC(c2nccs2)=NC1c1cccc(F)c1Cl (single isomer, unassigned) [Compound 37B, Methyl 4-(2-chloro-3-fluorophenyl)-6-(3-(methylsulfonyl)-3-azabicyclo[3.2.1]octan-8-yl)-2-(thiazol-2-yl)-1,4-dihydropyrimidine-5-carboxylate]	6.89	5900	
COC(=O)C1=C(C2CCN(S(=O)(=O)CC(F)(F)F)CC2)NC(c2nccs2)=NC1c1ccc(F)cc1Cl (stereo not drawn) [Compound 216, Methyl 4-(2-chloro-4-fluorophenyl)-2-(thiazol-2-yl)-6-(1-((2,2,2-trifluoroethyl)sulfonyl)piperidin-4-yl)-1,4-dihydropyrimidine-5-carboxylate]	7.05	> 100000	
COC(=O)C1=C([C@H]2CC[C@H](C(=O)O)CC2)NC(c2nccs2)=NC1c1cccc(F)c1Cl (stereo partly drawn) [Compound 17, trans-4-(6-(2-Chloro-3-fluorophenyl)-5-(methoxycarbonyl)-2-(thiazol-2-yl)-3,6-dihydropyrimidin-4-yl)cyclohexanecarboxylic Acid]	6.52	93800	
COC(=O)C1=C(C2CCN(C)C2)NC(c2nccs2)=NC1c1ccc(F)cc1Cl (single isomer, unassigned) [Compound 207C, methyl 4-(2-chloro-4-fluorophenyl)-6-(−1-methylpyrrolidin-3-yl)-2-(thiazol-2-yl)-1,4-dihydropyrimidine-5-carboxylate]	6.12	> 20000	
COC(=O)C1=C(C2CCN(S(=O)(=O)c3ccccn3)CC2)NC(c2nccs2)=NC1c1cccc(F)c1Cl (single isomer, unassigned) [Compound 116B, Methyl 4-(2-chloro-3-fluorophenyl)-6-(1-(pyridin-2-ylsulfonyl)-piperidin-4-yl)-2-(thiazol-2-yl)-1,4-dihydropyrimidine-5-carboxylate]	6.68	71300	
COC(=O)C1=C([C@@H]2CCN(S(=O)(=O)CC(F)(F)F)C2)NC(c2nccs2)=NC1c1ccc(F)cc1Cl (stereo partly drawn) [Compound 364, Methyl 4-(2-chloro-4-fluorophenyl)-2-(thiazol-2-yl)-6-((R)-1-((2,2,2-trifluoroethyl)sulfonyl)pyrrolidin-3-yl)-1,4-dihydropyrimidine-5-carboxylate]	6.68	> 100000	
CCNS(=O)(=O)N1CC(C2=C(C(=O)OC)C(c3ccc(F)cc3Cl)N=C(c3nccs3)N2)C1 (stereo not drawn) [Compound 81, 4-(2-Chloro-4-fluoro-phenyl)-6-(1-ethylsulfamoyl-azetidin-3-yl)-2-thiazol-2-yl-1,4-dihydro-pyrimidine-5-carboxylic Acid Methyl Ester]	6.92	10500	
COC(=O)C1=C(C2CCN(C(=O)C(C)(C)C)C2)NC(c2nccs2)=NC1c1ccc(F)cc1Cl (stereo not drawn) [Compound 68, Methyl 4-(2-chloro-4-fluorophenyl)-6-(1-pivaloylpyrrolidin-3-yl)-2-(thiazol-2-yl)-1,4-dihydropyrimidine-5-carboxylate]	6.24	72900	
COCCS(=O)(=O)N1CCC(C2=C(C(=O)OC)C(c3ccc(F)cc3Cl)N=C(c3nccs3)N2)C1 (single isomer, unassigned) [Compound 365, Methyl 4-(2-chloro-4-fluorophenyl)-6-((R*)-1-((2-methoxyethyl)sulfonyl)pyrrolidin-3-yl)-2-(thiazol-2-yl)-1,4-dihydropyrimidine-5-carboxylate]	7.21	21800	
COC(=O)C1=C([C@H]2CC[C@H](C(=O)OC)CC2)NC(c2nc(C)cs2)=NC1c1ccc(F)cc1Br (single isomer, unassigned) [Compound 239X, (trans)-Methyl 4-(2-bromo-4-fluorophenyl)-6-(4-(methoxycarbonyl)cyclohexyl)-2-(4-methylthiazol-2-yl)-1,4-dihydropyrimidine-5-carboxylate]	6.83	14800	
